Consider three molecules from patent publication US9149525B2, “Delivery of corticosteroids through iontophoresis” (EyeGate Pharmaceuticals, Inc., priority 2008, dated 2015).

A short description of data set [1]: In vitro iontophoretic delivery with sodium citrate buffer. Format: in vitro ADME. The protocol: In vitro testing was performed at ±3 m A using a 10 mg/mL solution in 100 mM sodium citrate at pH ˜5.66. Approximately 1% transferred to receptor using cathodic delivery.
In vitro testing was performed using four different concentrations of sodium citrate buffer to examine the effect of reducing the number or competing ions on transport efficiency of DEX. […] Other conditions are varied including, for example, eliminating the pH change from the lower concentrations of sodium citrate solutions and using various non-charged excipients to modulate the donor solution osmolarity.

The conditions of data set [2]: administered systemically; cited from earlier work.
In data set [3] the test system is concanavalin A-induced dry eye. The data set can be described thus: Concanavalin A-induced dry eye in rabbits: tear flow and fluorescein staining. In kind it is in vivo, white New Zealand rabbits. Conditions: single 15 mA·min iontophoretic dose, 40 mg/mL, on Day 2. The method, then: 300 μg of Concanavalin A (Sigma) in […] or phosphate-buffered saline (PBS) or PBS alone were injected into the lacrimal glands of white New Zealand rabbits to induce inflammation leading to dry eye symptoms, which is a well-established model of dry eye syndrome.
The animals were assigned to the following treatment groups:
Animals were observed daily following Con A injection for signs of ocular inflammation. Tear flow was measured using Schirmer strips in all groups on Days 0, 1, 2, 4, 7, and 8 after Con A injection (FIG. 6). Signs of ocular surface damage were assessed on Days 0, 2, 4, and 8 using fluorescein staining and slit-lamp microscopy (FIGS. 7 and 8).

Data set [4] concerns transforming growth factor beta-1 (TGF-β1). Nature of the data set: Cytokine ELISA in lacrimal gland and corneal extracts, TGF-β1. Format: in vivo, rabbit. Conditions: Day 4 or Day 8. The protocol: (§1) Animals were euthanized on Day 4 or Day 8 following Con A injection. Upon sacrifice, the cornea and lacrimal gland were removed and snap frozen in liquid nitrogen followed by storage at −80° C. All samples were homogenized by hand in a ground-glass homogenizer in 0.5 mL of PBS+10 mM EDTA. Interleukin-1-beta (IL-1β), FIG. 9, and transforming growth factor beta-1 (TGF-β1), FIG. 10, were measured in lacrimal gland and conical extracts using human IL-1β or TGF-β1 ELISA kit (R&D Systems DuoSet development system) according to manufacturer's instructions. Results were normalized for total protein concentration measured in the protein assay. Due to the high homology between rabbit and human IL-1β and TGF-β1, human kits are appropriate for detecting the rabbit cytokine.
(In an ELISA, binding on a coated surface is turned into a signal by an enzyme label.)

A short description of data set [5]: Cathodal trans-scleral iontophoresis in side-by-side diffusion cells. Format: in vitro ADME. To be noted: 0.5, 1 and 2 mA; after one hour; donor 0.4% w/v in water; rabbit sclera. The protocol:
(§2) All transscleral iontophoresis studies were performed in side-by-side diffusion cells (transport area 0.2 cm^2, volume 4 mL) with excised rabbit sclera. The tissue was freed from is the conjunctival extraocular muscles and retina. The sclera was clamped between the two half-cells, with the conjunctival side facing the drug solution. Pt or Ag/AgCl electrodes were used to deliver the constant current, which was provided by a power supply. Each experiment was performed in at least quadruplicate. Appropriate passive, no-current controls were performed.
(§3) The receptor solution was again phosphate-buffered saline at pH 7.4. A limited number of experiments were also carried out, in this instance, using sheep sclera. […] Samples of the receptor phase were assayed for dexamethasone by HPLC.

For data set [6] the following is noted: for Dex AUC0-6h / Dex AUC0-24h: iontophoresis, analyte dexamethasone; for clearance of dexamethasone and DEX phosphate from plasma and ocular tissues: within 48 hours after iontophoretic administration.
The conditions of data set [7]: cited from earlier work.
Data set [8] can be described thus: Cathodal trans-scleral iontophoresis in side-by-side diffusion cells, sheep sclera. Format: in vitro ADME. Conditions: limited number of experiments. The protocol:
as §2, §3

The test system of data set [9] is interleukin-1beta (IL-1β). Nature of the data set: Cytokine ELISA in lacrimal gland and corneal extracts, IL-1β. Format: in vivo, rabbit. To be noted: Day 4 or Day 8. The protocol:
as §1

For data set [10] the following is noted: rabbit, in vivo.
The mark [11] stands for this setting: single iontophoretic dose on Day 2.
The mark [12] stands for this setting: aqueous humor, single dose 40 mg/mL Dex P.
Setting [13] is: aqueous humor, single dose 60 mg/mL Dex P.
The mark [14] stands for this setting: choroid, single dose 40 mg/mL Dex P.
Where [15] appears, read: choroid, single dose 60 mg/mL Dex P.
The mark [16] stands for this setting: plasma, single dose 40 mg/mL Dex P.
Setting [17] is: plasma, single dose 60 mg/mL Dex P.
The mark [18] stands for this setting: vitreous, single dose 40 mg/mL Dex P.
[19] abbreviates: vitreous, single dose 60 mg/mL Dex P.

Read-outs that look alike come from different tables or passages of the source.

Consider `C[C@@H]1C[C@H]2[C@@H]3CCC4=CC(=O)C=C[C@]4(C)[C@@]3(F)[C@@H](O)C[C@]2(C)[C@@]1(O)C(=O)CO` [dexamethasone, 9-fluoro-11β,17,21-trihydroxy-16α-methylpregna-1,4-diene-3,20-dione], for which the “DEX flux on decreasing the amount of sodium citrate” value in data set [1] (four different concentrations of sodium citrate buffer) is reported as “increased DEX flux”. The “amount transferred to receptor” value in data set [1] (±3 mA, 10 mg/mL solution in 100 mM sodium citrate at pH ~5.66, cathodic delivery) is “Approximately 1%”. For the same molecule, in data set [2], the “anti-inflammatory activity relative to prednisone or prednisolone” value is recorded as “six to ten times greater” and the “anti-inflammatory potency relative to cortisone” value was 30 to 40 times.

In the case of `C[C@@H]1C[C@H]2[C@@H]3CCC4=CC(=O)C=C[C@]4(C)[C@@]3(F)[C@@H](O)C[C@]2(C)[C@@]1(O)C(=O)COP(=O)(O)O` [DEX phosphate, dexamethasone phosphate], in data set [3], the “ocular surface damage (fluorescein staining) compared to control groups” value is on record as “decreases the amount of ocular surface damage”. The “tear flow (Schirmer strips) compared to control groups” value in data set [3] is listed as “increases tear flow”. Besides, the “TGF-β1 expression in the cornea” value in [4] is recorded as “No significant difference”. For the same molecule, the “TGF-β1 expression in the lacrimal glands compared to saline treatment and control groups” value in data set [4] (setting [11]) was “Reduced”. Also, the “flux across the sclera versus applied current” value in data set [5] is on record as “directly proportional to the applied current”. Further, the “Dex AUC0-6h” value in [6] (setting [12]) was 56.5 μg · h/g or μg · h/mL; in data set [6] (setting [13]) it was 123 μg· h/g or μg · h/mL; in [6] (setting [14]), 24.9 μg · h/g or μg · h/mL; in data set [6] (setting [15]) it was 49.5 μg· h/g or μg · h/mL; in data set [6] (setting [16]), 1.6 μg · h/g or μg · h/mL; in data set [6] (setting [17]), 3.7 μg· h/g or μg · h/mL. For the same molecule, the “Dex AUC0-6h” value is 1.5 μg · h/g or μg · h/mL in data set [6] (setting [18]) and 2.3 μg· h/g or μg · h/mL in data set [6] (setting [19]). Also, the “Dex AUC0-24h” value in data set [6] (setting [12]) is listed as 73.8 μg · h/g or μg · h/mL; in [6] (setting [13]) it was 132 μg· h/g or μg · h/mL; in data set [6] (setting [14]) it was 35.9 μg · h/g or μg · h/mL; in data set [6] (setting [15]), 66.7 μg· h/g or μg · h/mL; in data set [6] (setting [16]) it was 3.3 μg · h/g or μg · h/mL; in data set [6] (setting [17]), 6.6 μg· h/g or μg · h/mL. In addition, the entries for the “Dex AUC0-24h” value in data set [6] (setting [18]) and in data set [6] (setting [19]) were 2.2 μg · h/g or μg · h/mL and 3.0 μg· h/g or μg · h/mL, respectively. Further, the “clearance of dexamethasone and DEX phosphate from plasma and ocular tissues” value was “nearly completely cleared” in data set [6] and “NEARLY COMPLETELY” in [6] (listed as DEX-P). In addition, the “pKa (first of the two pKa's)” value in data set [7] is recorded as 1.9. For the same molecule, the “pKa (second of the two pKa's)” value in [7] is recorded as 6.4. Moreover, the “electrotransport data with sheep sclera compared with rabbit sclera” value in data set [8] is listed as “indistinguishable from those obtained using the corresponding rabbit membranes”. Further, the “material fluxed across the membrane (with current)” value (40 mg/mL aqueous solution pH 5.7, cathodic iontophoresis) was “up to 5%”. The “passive transfer across the membrane (without current)” value (40 mg/mL aqueous solution pH 5.7, up to 120 minutes) is “little or no”. Besides, the “dexamethasone in the residual donor solution, share of total area under the curve (HPLC, UV)” value (donor chamber after iontophoresis) is listed as less than 5%. The “impurities in the donor or receiving chambers under iontophoresis” value (for up to 120 minutes) is “no significant impurities were detectable”. The “share of the total DEX phosphate initially in the donor chamber found in the receptor chamber” value (receptor chamber) is recorded as less than 5%. The “dexamethasone in the receptor chamber solution, share of total area under the curve (HPLC, UV)” value (receptor chamber solution) is listed as less than 5%. For the same molecule, the “share of the receptor chamber material that was dexamethasone phosphate” value (receptor chamber solution) was 95%. Besides, the “IL-1β expression in the cornea” value in data set [9] was “No significant difference”. The “IL-1β expression in the lacrimal glands compared to saline treatment and control groups” value in data set [9] (setting [11]) is reported as “Reduced”.

As to `C[C@@H]1C[C@H]2[C@@H]3CCC4=CC(=O)C=C[C@]4(C)[C@@]3(F)[C@@H](O)C[C@]2(C)[C@@]1(O)C(=O)COP(=O)([O-])[O-].[Na+].[Na+]` [DEX disodium phosphate, dexamethasone disodium phosphate], the “plasma levels at two hours post dose” value in data set [10] was less than 4000 ng/mL.
